In US20240309090A1, “MODULATION OF ANDROGEN SIGNALING TO INNATE IMMUNE KILLING OF PROSTATE CANCER” (Brown University, priority 2023, published 2024):

Experiments:
[1] = system: PCa cell lines (PC3, LNCaP, 22Rv1, DU145); assay: Cytokine profiling of prostate cancer cell culture supernatants (Luminex 200); format: cell-based; conditions: for IFN-γ secretion: DU145, 22Rv1, and PC3 cell lines; for secretion of immune-activating cytokines such as IL-2 / secretion of pro-tumorigenic and immunosuppressive cytokines such as VEGF, M-CSF, IL-8, CXCL10 and GDF-15: PCa cell lines, 24 h
Method: GDF-15 is implicated in the immunosuppressive prostate cancer TME and the progression of benign prostate hyperplasia to adenocarcinoma.
The medium was collected 24 hours after treatment and stored at −80° C. until readout. Samples were shipped to Brown University to run them in biological duplicate on a Luminex 200 Instrument (R&D LX200-XPON-RUO), which captures cytokines on magnetic antibody-coated beads and measures cytokine levels using a system based on the principles of flow cytometry (see https:/www.luminexcorp.com/luminex-100200/#overviewfor more information). A custom […] panel was split into 34-plex and 18-plex assays (R&D LXSAHM) and was run on the Luminex 200 instrument according to the manufacturer's protocol.
We conducted cell viability assays to investigate the effect of Enza and Daro on PC cells (LNCap, 22Rv1 [ARv7 mutation], DU145, PC3 [AR-]) and NK-92 cells. We performed co-culture experiments with PC and NK cells in a 1:1 ratio and analyzed immune cell-mediated tumor cell killing (ImageXpress Confocal HT). Cytokine profiling (Luminex 200) of culture supernatants was performed following treatment with ARi−/+ and anti-IFN-γ antibodies. In vivo studies were performed in NCr Nude mice harboring subcutaneous PC tumors treated orally with Daro (50 mg/kg/bid) and Enza (30 mg/kg/bid) for 4 weeks.

[2] = system: PC3; assay: Co-culture of GFP-expressing PC3 with patient-derived NK cells; format: cell-based, human; conditions: GFP PC3, 1:1, 24 h; monalizumab in combination with enza and daro
Text: To validate an additive effect of ARi and monalizumab enhancing NK cell cytotoxicity, we performed a co-culture assay with GFP-labeled PCa cell lines (including ARi-sensitive LNCaP and ARi-resistant PC3) and patient-derived NK cells. The NK cells were negatively selected from whole blood from patients with metastatic prostate cancer before initiation of androgen deprivation therapy. The addition of enzalutamide or darolutamide enhanced the cytotoxicity of NK cells, and the combination of ARi with monalizumab potentiated immune killing (FIG. 15C-D).
Prostate cancer cell lines were dyed with the blue CMAC live-cell dye (Thermo Fisher Scientific #C2110, per manufacturer protocol). Blue-fluorescent cancer cells were plated at a density of 10,000 cells per well of a 48-well plate. NK-92 cells were dyed with green CMFDA (Cayman Chemical Company #19583, per manufacturer protocol). Green-fluorescent NK-92 cells were added to the blue-fluorescent cancer cells at a 1:1 ratio. Enzalutamide (10 μM), darolutamide (20 μM), and 1 μM ethidium homodimer (EthD-1) were added at the same time as the NK cells. After 24 hours of co-culture, images of live cancer cells, live NK cells, and dead cells were taken using a fluorescent microscope. The co-culture experiments were run with internal control conditions and as a single treatment. Normalization was performed after analysis to take baseline death conditions into each experiment run. To optimize the high output of these experiments, a subset of co-cultures were performed using the ImageXpress® Micro Confocal High-Content Imaging. This analysis maintained the experiment conditions, drug concentrations, and the dyeing process. When GFP-labeled tumor cells were used for culture assays, they were added in a 1:1 ratio. Cell adhered over 24 h, and when patient-derived NK cells were added, a control well was trypsinized, and cells resuspended and counted to adjust a 1:1 ratio before treatment addition. The experiments with blocking antibodies were performed using the ImageXpress system. TRAIL blocking ab was purchased from Santa Cruz TRAIL Antibody (RIK-2): sc-56246, and IFN gamma blocking Monoclonal Antibody (NIB42, #6-7318-81) was purchased from Thermo Fisher. The blocking mAb was added when NK cells were combined with tumor cells.
NK cells were isolated from patients harboring metastatic castration-sensitive prostate cancer using the MojoSort™ Human NK Cell Isolation Kit (#480053). Patients signed informed consent for IRB-approved research protocol number 2055-13, allowing the collection of peripheral blood samples. […] The untouched NK cells (CD56+, CD3−) were collected, and the purity of isolation was determined by flow cytometry using anti-CD56 (BioLegend 362503). […]

[3] = system: NK cells; assay: Flow cytometry of NKG2A and PD-1 surface expression on NK cells; format: cell-based
Method: PCa cells were plated at a density of 3×10^5 cells per well of a 6-well plate and adhered overnight. […] After treatment, cells were trypsinized, stained, and incubated (Cell Staining Buffer SouthernBiotech #0225-01S) with the corresponding antibody for 45-60 min at 4° C. Viability dye was added with each run. NK-92 cells and patient-derived cells were stained similarly. Markers used for experiments included: Thermofisher HLA-E Monoclonal Antibody (3D12HLA-E), Alexa Fluor™ 488, eBioscience™, CD274 (PD-L1, B7-H1) Monoclonal Antibody (MIH1), eFluor™ 450, eBioscience™, Cell Signaling PD-1 (D4W2J) XPR Rabbit mAb, SYTOX™ Orange Dead Cell Stain, for flow cytometry, BioLegend APC anti-human CD159a (NKG2A) Antibody #375108, BioLegend APC anti-human CD69 Antibody #310909, BioLegend Alexa Fluor® 647 anti-human CD137 (4-1BB) [4B4-1] #309823. For staining of the patient-derived PBMCs and subsequent NK cell characterization, the following antibodies were used: BioLegend Anti-Perforin Mouse Monoclonal Antibody (PerCP Cy5.50, clone: dG9) #308113, BioLegend Anti-Granzyme B Mouse Monoclonal Antibody (FITC, clone: GB11) #515403, BioLegend Anti-CD56 Mouse Monoclonal Antibody (Alexa Fluor® 700, clone: 5.1H1) #362521, and BioLegend (PE anti-human CD45 Antibody) #304008.
Methods: PCa cell lines (LNCaP, 22Rv1 [ARv7 mutation], DU145[AR-], PC3 [AR-]) were cocultured with NK-92 cells and treated with ARi (enzalutamide [enza] and darolutamide [daro]) or in combination with anti-NKG2A antibody monalizumab. Immune cell-mediated tumor cell killing assays and multiplexed cytokine profiling were performed. NKc expression of NKG2A and PCa cells expression of HLA-E were investigated by flow cytometry. The AR-negative cell lines (PC3 and DU145) were stably transduced with a functional AR pathway to evaluate the modulation of HLA-E by AR. The activation status of peripheral blood NKc isolated from patients with PCa before and post-initiation of androgen deprivation therapy (ADT) was investigated by flow cytometry.

Compound: CC(O)c1cc(C(=O)N[C@@H](C)Cn2ccc(-c3ccc(C#N)c(Cl)c3)n2)n[nH]1 (stereo partly shown) [darolutamide]
- IFN-γ secretion [1]: upregulation
- secretion of immune-activating cytokines such as IL-2 [1]: increased
- secretion of pro-tumorigenic and immunosuppressive cytokines such as VEGF, M-CSF, IL-8, CXCL10 and GDF-15 [1]: reduced
- killing of PCa cells by patient-derived NK cells (in words) [2]: enhanced
- surface expression of NKG2A [3]: modulate

Compound: CNC(=O)c1ccc(N2C(=S)N(c3ccc(C#N)c(C(F)(F)F)c3)C(=O)C2(C)C)cc1F [enzalutamide]
- IFN-γ secretion [1]: upregulation
- secretion of immune-activating cytokines such as IL-2 [1]: increased
- secretion of pro-tumorigenic and immunosuppressive cytokines such as VEGF, M-CSF, IL-8, CXCL10 and GDF-15 [1]: reduced
- killing of PCa cells by patient-derived NK cells (in words) [2]: enhanced
- surface expression of NKG2A [3]: modulate
